The values that follow are results of earlier work, collected in patent publication US8945508B2, “Dendrimer compositions and methods of synthesis” (priority 2009, dated 2015).

For data set [1] the following is noted: more cytotoxic than IRINOTECAN

As to `N.N.[Cl][Pt][Cl]` [cisplatin], the “in vivo activity in solid tumor models” value in the data set on solid tumors is reported as “no effect”.
In the case of `CC[C@@]1(O)C(=O)OCc2c1cc1n(c2=O)Cc2cc3cc(O)ccc3nc2-1` [SN-38, 10-hydroxycamptothecin], in data set [1], the “cytotoxicity relative to IRINOTECAN” value is listed as 1000 fold.
